The values below come from patent publication US8436019B2, “Sulfonyl-piperidin-4-yl methylamine amide analogs as GlyT1 inhibitors, methods for making same, and use of same in treating psychiatric disorders” (Vanderbilt University, priority 2009, dated 2013).

The first test deals with T1, GlyT1 (Homo sapiens, UniProt P48067).
T1 construct: Human placental choriocarcinoma cells endogenously expressing GlyT1; endogenous in cells; host or cells: JAR cells (human placental choriocarcinoma)
T1 sequence (P48067 1-706): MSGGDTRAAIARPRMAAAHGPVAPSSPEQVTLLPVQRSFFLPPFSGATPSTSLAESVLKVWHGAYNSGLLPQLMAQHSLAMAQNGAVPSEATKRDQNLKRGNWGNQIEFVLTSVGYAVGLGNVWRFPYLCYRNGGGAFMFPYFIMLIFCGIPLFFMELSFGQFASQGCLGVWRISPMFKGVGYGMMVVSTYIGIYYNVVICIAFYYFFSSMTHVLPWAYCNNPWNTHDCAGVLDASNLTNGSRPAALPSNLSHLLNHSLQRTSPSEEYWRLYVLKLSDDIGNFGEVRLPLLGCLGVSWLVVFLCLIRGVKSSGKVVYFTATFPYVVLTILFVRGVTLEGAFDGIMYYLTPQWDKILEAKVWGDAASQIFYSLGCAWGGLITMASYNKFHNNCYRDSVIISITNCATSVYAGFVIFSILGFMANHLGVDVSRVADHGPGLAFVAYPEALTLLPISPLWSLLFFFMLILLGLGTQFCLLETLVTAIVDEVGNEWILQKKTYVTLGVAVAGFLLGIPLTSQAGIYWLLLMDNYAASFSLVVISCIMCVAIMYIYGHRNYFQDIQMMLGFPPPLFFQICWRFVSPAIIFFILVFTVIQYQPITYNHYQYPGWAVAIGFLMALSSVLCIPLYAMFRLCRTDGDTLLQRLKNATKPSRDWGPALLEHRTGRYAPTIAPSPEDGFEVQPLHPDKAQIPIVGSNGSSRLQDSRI
Description: [14C]-glycine uptake inhibition in JAR cells (human placental choriocarcinoma cells endogenously expressing GlyT1). The following applies: inhibition of specific [14C]-glycine uptake; values given in μM; read-out: Potency. Format: cell-based. The procedure:
Human placental choriocarcinoma cells endogenously expressing GlyT1 can be cultured using standard conditions. Cells can then be grown at 37° C. in a humidified atmosphere 40-48 hours before the assay. Culture medium can be removed from the culture plate, and cells can be incubated with an amount of TB1A buffer with or without the compounds of the present invention for a sufficient period of time. Then an amount of [^14C]-glycine diluted with TB1A can be added to each well. After incubation the microplates can be sealed and counted. Non-specific uptake of [^14C]-glycine can be determined in the presence of unlabeled glycine. To determine potencies, a range of concentrations of the compounds of the present invention can be added to the cells, followed by the fixed concentration of [^14C]-glycine. The concentration of the present compound that inhibited half of the specific uptake of [^14C]glycine (IC50 value) can be determined from the assay data by non-linear curve fitting.
As for `Cn1cnc(S(=O)(=O)N2CCC(C(NC(=O)c3ccccc3Cl)c3ccccc3)CC2)c1` (centres unmarked) [Compound 5a], the IC50 is above 10 µM.
For `Cn1cnc(S(=O)(=O)N2CCC(C(NC(=O)c3c(F)cccc3F)c3ccccn3)CC2)c1` (centres unmarked) [Compound 8c], the IC50 was above 10 µM.
As to `CCCS(=O)(=O)N1CCC(C(NC(=O)c2ccc(Cl)cc2Cl)c2ccccc2)CC1` (single isomer, unassigned) [Compound 3a-1], the IC50 is above 10 µM.
On to `Cn1cc(S(=O)(=O)N2CCC(C(NC(=O)c3ccc(Cl)cc3Cl)c3ccccc3)CC2)cn1` (centres unmarked) [Compound 3c], for which the IC50 stood at 2.4 µM.
Turning to `Cn1cnc(S(=O)(=O)N2CCC(C(NC(=O)c3ccc(Cl)cc3Cl)c3ccccc3)CC2)c1` (single isomer, unassigned) [Compound 3b-1], the IC50 was above 10 µM.
As to `Cn1cnc(S(=O)(=O)N2CCC(C(NC(=O)c3ccccc3C(F)(F)F)c3ccccn3)CC2)c1` (centres unmarked) [Compound 8b], the IC50 amounted to 1.6 µM.
For the compound `Cn1cnc(S(=O)(=O)N2CCC(C(NC(=O)c3ccc(Cl)cc3Cl)c3ccccn3)CC2)c1` (single isomer, unassigned) [Compound 8a-2], the IC50 amounted to 1.6 µM.
Same read-out and setting: then `CCCS(=O)(=O)N1CCC(C(NC(=O)c2ccc(Cl)cc2Cl)c2ccccc2)CC1` (racemic) [Compound 3a], with 1.5 µM.

The test is the same for the next values; noted with them: inhibition of specific [14C]-glycine uptake; values in nM; read-out: Potency.
Turning to `Cn1cnc(S(=O)(=O)N2CCC(C(NC(=O)c3ccc(Cl)cc3Cl)c3ccccc3)CC2)c1` (racemic) [Compound 3b], the IC50 worked out at 0.201 µM.
Consider `Cn1cnc(S(=O)(=O)N2CCC(C(NC(=O)c3ccc(F)cc3F)c3ccccn3)CC2)c1` (centres unmarked) [Compound 8e], for which the IC50 is 0.853 µM.
With `Cn1cnc(S(=O)(=O)N2CCC(C(NC(=O)c3ccc(Cl)cc3Cl)c3ccccn3)CC2)c1` (single isomer, unassigned) [Compound 8a-1], the IC50 was found to be 0.09 µM.
On to `Cn1cnc(S(=O)(=O)N2CCC(CNC(=O)c3ccc(Cl)cc3Cl)CC2)c1` [Compound 9a], for which the IC50 was 0.174 µM.
In the case of `CCCS(=O)(=O)N1CCC(C(NC(=O)c2ccc(Cl)cc2Cl)c2ccccc2)CC1` (single isomer, unassigned) [Compound 3a-2], the IC50 is 0.609 µM.
For `Cn1cnc(S(=O)(=O)N2CCC(C(NC(=O)c3ccc(Cl)cc3Cl)c3ccccc3)CC2)c1` (single isomer, unassigned) [Compound 3b-2], the IC50 stood at 0.178 µM.
For the compound `CC(NC(=O)c1ccc(Cl)cc1Cl)C1CCN(S(=O)(=O)c2cn(C)cn2)CC1` (centres unmarked) [Compound 9b], the IC50 was determined as 0.53 µM.
As to `Cn1cnc(S(=O)(=O)N2CCC(C(NC(=O)c3ccc(Cl)cc3)c3ccccn3)CC2)c1` (centres unmarked) [Compound 8d], the IC50 is 0.718 µM.
With `Cn1cnc(S(=O)(=O)N2CCC(C(NC(=O)c3ccc(Cl)cc3Cl)c3ccccn3)CC2)c1` (racemic) [Compound 8a], the IC50 is 0.046 µM.
